{"source": "patent US20240082273A1", "about": "“NEUROKININ INHIBITORS SUCH AS APREPITANT FOR TREATING NON SMALL CELL LUNG CARCINOMA OR BREAST CANCER WITHOUT MUTATIONS” (priority 2020, published 2024)", "key": {"[1]": {"test_system": "lung cancer cell lines with molecular profile EGFR−/ALK+/ROS1− (H322, H332)", "assay": "MTT proliferation, NSCLC cell lines with EGFR−/ALK+/ROS1− profile", "format": "cell-based, human", "conditions": "48 hours", "text": "(§1) EGFR, ALK and ROS1 are key molecular factors that may be used to determine pathological classification, prognosis, therapeutics and behaviour in patients with lung cancer. EGFR, ALK and ROS1 are biomarkers routinely analysed in the clinical practice of the management of patients with NSCLC. NSCLC with molecular profile EGFR-/ALK-/ROS1- presents a better response to treatment with the NK1 inhibitor aprepitant, compared to lung cancer with different profiles (in particular, EGFR+/ALK-/ROS1- and EGFR-/ALK+/ROS1-, in which EGFR and ALK respectively contain mutations relative to their wild type gene). Commercial lines of lung cancer were used as shown in Table 2 together with their molecular profile. The molecular profile of the cancer cell lines was determined by sequencing and can be consulted in the Cancer Cell Line Encyclopaedia database of public access available at the url: https://portals.broadinstitute.org/ccle All cells were cultured in wells under vendor-recommended conditions and exposed to different concentrations of aprepitant for 48 hours. In each case a group of wells of cells were used to which no treatment was applied and which were considered as controls. At 48 hours the number of cells was measured. Eight cell lines of human were used for the study of NK1 inhibitors (Table 3). All of them were maintained in culture in their respective culture media (Gibco,Thermo Fisher Scientific) supplemented with 10% foetal bovine serum (FBS) (Gibco, Thermo Fisher Scientific), 2 mM L-Glutamine (Gln) (Sigma-Aldrich, Merk), and […] and […] Gibco, Thermo Fisher Scientific) in a humidified incubator at 37° C. and 5% CO2. Cell culture media used are Dulbecco's Modified Eagle Medium (DMEM), and RPMI Medium 1640 (RPMI-1640). To measure cell viability, the cytotoxicity of drugs in culture was evaluated using the 3-(4,5-Dimethyl-2-thiazolyl)-2,5-diphenyl-2H-tetrazolium bromide (MTT) reduction assay. This assay assesses cell viability through the indirect measurement of the activity of reductases that convert yellow soluble MTT into purple insoluble formazan salts. As MTT can only be reduced when these enzymes are active, the reaction is used as an indicator of the cell metabolic competence and, therefore, of viability. A variable number of cells (depending on the cell line) were seeded in 96 multi-well plates and grown during 24 hours. The following day, the culture medium was aspirated and fresh culture medium with the drug dissolved was added to the wells. After 24 hours or 48 hours cell viability was measurement by adding 10 μl of a 5 mg/ml MTT solution (M5655; Sigma-Aldrich) and 100 μl of HCl 0.01M-SDS 10% solution 4 hours later. After 24 hours, the absorbance was measured at 595 nm, using a multi-well plate reader (iMark, Bio-rad). Each condition was tested 5 times, obtaining 5 values of absorbance. All sample measurements were corrected using the blank (culture medium without cells) mean absorbance value, and normalized to positive control to determinate relative cell viability for each condition at 24 and 48 hours."}, "A549": {"test_system": "A549", "assay": "MTT proliferation, A549", "format": "cell-based, human", "conditions": "48 hours", "text": "as §1"}, "[2]": {"test_system": "breast cancer cell lines ER−/PR−/HER2− (MDAMB231, MDAMB435, MDAMB468)", "assay": "MTT proliferation, breast cancer cell lines ER−/PR−/HER2−", "format": "cell-based, human", "conditions": "for Mean proliferation: 48 hours", "experimental": "All cells were cultured in wells under vendor-recommended conditions and exposed to different concentrations of aprepitant for 48 hours. In each case a group of wells of cells were used to which no treatment was applied and which were considered as controls. At 48 hours the number of cells was measured. To measure cell viability, the cytotoxicity of drugs in culture was evaluated using the 3-(4,5-Dimethyl-2-thiazolyl)-2,5-diphenyl-2H-tetrazolium bromide (MTT) reduction assay. This assay assesses cell viability through the indirect measurement of the activity of reductases that convert yellow soluble MTT into purple insoluble formazan salts. As MTT can only be reduced when these enzymes are active, the reaction is used as an indicator of the cell metabolic competence and, therefore, of viability. A variable number of cells (depending on the cell line) were seeded in 96 multi-well plates and grown during 24 hours. The following day, the culture medium was aspirated and fresh culture medium with the drug dissolved was added to the wells. After 24 hours or 48 hours cell viability was measurement by adding 10 μl of a 5 mg/ml MTT solution (M5655; Sigma-Aldrich) and 100 μl of HCl 0.01M-SDS 10% solution 4 hours later. After 24 hours, the absorbance was measured at 595 nm, using a multi-well plate reader (iMark, Bio-rad). Each condition was tested 5 times, obtaining 5 values of absorbance. All sample measurements were corrected using the blank (culture medium without cells) mean absorbance value, and normalized to positive control to determinate relative cell viability for each condition at 24 and 48 hours."}, "[3]": {"test_system": "human primary triple negative breast carcinoma (ER−/PR−/HER2−) tumour cells", "assay": "Primary triple negative breast carcinoma xenograft mouse model", "format": "in vivo, nu/nu Balb/c nude mice", "conditions": "for Mean proliferation: 28 days", "experimental": "Immunocompromised female mice, 5-6 weeks of age were used, nu/nu Balb/c nude mice, provided by Harlan Iberica Barcelona (Spain). They were kept at 24° C. and in sterile conditions with food and water “ad libitum”. They were injected with 2×10^7 tumour cells, corresponding to human primary triple negative breast carcinoma (i.e. tumour cells having a ER−/PR−/HER2− molecular profile) in 200 μl of PBS subcutaneous route. The tumour size was measured and the mice were evaluated for their state of health and weight daily. The mice were randomised in groups when the tumours reached a volume of 75 mm^3. One of the groups was treated with 200 μl of placebo (control group) and the eight remaining groups with doses of 1 to 100 mg per kilogram of weight and day of the NK1 inhibitor aprepitant. Five animals were treated per group, during 28 days. All the mice were sacrificed at the end of the experiment."}}, "data": [{"smiles": "C[C@@H](O[C@H]1OCCN(Cc2nc(=O)[nH][nH]2)[C@H]1c1ccc(F)cc1)c1cc(C(F)(F)F)cc(C(F)(F)F)c1", "note": "[Aprepitant]", "values": [{"measurement": "Mean proliferation", "setting": "[1]; aprepitant 1 μM", "result": 102.88}, {"measurement": "Mean proliferation", "setting": "[1]; aprepitant 3 μM", "result": 92.41}, {"measurement": "Mean proliferation", "setting": "[1]; aprepitant 5 μM", "result": 105.07}, {"measurement": "Mean proliferation", "setting": "[1]; aprepitant 10 μM", "result": 108.06}, {"measurement": "Mean proliferation", "setting": "[1]; aprepitant 20 μM", "result": 99}, {"measurement": "Mean proliferation", "setting": "[1]; aprepitant 30 μM", "result": 88.22}, {"measurement": "Mean proliferation", "setting": "[1]; aprepitant 40 μM", "result": 68.94}, {"measurement": "Mean proliferation", "setting": "[1]; aprepitant 50 μM", "result": 37.3}, {"measurement": "Mean proliferation", "setting": "[1]; aprepitant 60 μM", "result": 11.67}, {"measurement": "Mean proliferation", "setting": "A549; aprepitant 1 μM", "result": 96.56}, {"measurement": "Mean proliferation", "setting": "A549; aprepitant 3 μM", "result": 94.80}, {"measurement": "Mean proliferation", "setting": "A549; aprepitant 5 μM", "result": 64.40}, {"measurement": "Mean proliferation", "setting": "A549; aprepitant 10 μM", "result": 52.17}, {"measurement": "Mean proliferation", "setting": "A549; aprepitant 20 μM", "result": 40.48}, {"measurement": "Mean proliferation", "setting": "A549; aprepitant 30 μM", "result": 35.59}, {"measurement": "Mean proliferation", "setting": "A549; aprepitant 40 μM", "result": 21.55}, {"measurement": "Mean proliferation", "setting": "A549; aprepitant 50 μM", "result": 9.17}, {"measurement": "Mean proliferation", "setting": "A549; aprepitant 60 μM", "result": 11.36}, {"measurement": "inhibition at 20 µM", "setting": "[2]; Homo sapiens, concentration of 20 μM (FIG. 5), read-out: growth inhibition", "result": "~60", "unit": "%"}, {"measurement": "Mean proliferation", "setting": "[2]; aprepitant 0.3 μM", "result": 98.63}, {"measurement": "Mean proliferation", "setting": "[2]; aprepitant 1 μM", "result": 97.94}, {"measurement": "Mean proliferation", "setting": "[2]; aprepitant 3 μM", "result": 98.98}, {"measurement": "Mean proliferation", "setting": "[2]; aprepitant 10 μM", "result": 74.02}, {"measurement": "Mean proliferation", "setting": "[2]; aprepitant 20 μM", "result": 42.89}, {"measurement": "Mean proliferation", "setting": "[2]; aprepitant 30 μM", "result": 24.11}, {"measurement": "Mean proliferation", "setting": "[2]; aprepitant 40 μM", "result": 7.53}, {"measurement": "Mean proliferation", "setting": "[2]; aprepitant 50 μM", "result": 1.89}, {"measurement": "Mean proliferation", "setting": "[2]; aprepitant 60 μM", "result": 6.77}, {"measurement": "triple negative breast carcinoma proliferation in culture relative to ER+/PR+/HER2+, ER−/PR−/HER2+ and ER+/PR+/HER2−", "setting": "[2]; dose dependent", "result": "reduces"}, {"measurement": "Mean proliferation", "setting": "[3]; aprepitant 1 mg/kg/day", "result": 104}, {"measurement": "Mean proliferation", "setting": "[3]; aprepitant 3 mg/kg/day", "result": 108}, {"measurement": "Mean proliferation", "setting": "[3]; aprepitant 5 mg/kg/day", "result": 112}, {"measurement": "Mean proliferation", "setting": "[3]; aprepitant 8 mg/kg/day", "result": 110}, {"measurement": "Mean proliferation", "setting": "[3]; aprepitant 10 mg/kg/day", "result": 99}, {"measurement": "Mean proliferation", "setting": "[3]; aprepitant 20 mg/kg/day", "result": 76}, {"measurement": "Mean proliferation", "setting": "[3]; aprepitant 30 mg/kg/day", "result": 65}, {"measurement": "Mean proliferation", "setting": "[3]; aprepitant 40 mg/kg/day", "result": 61}, {"measurement": "Mean proliferation", "setting": "[3]; aprepitant 50 mg/kg/day", "result": 56}, {"measurement": "Mean proliferation", "setting": "[3]; aprepitant 60 mg/kg/day", "result": 54}, {"measurement": "Mean proliferation", "setting": "[3]; aprepitant 70 mg/kg/day", "result": 50}, {"measurement": "Mean proliferation", "setting": "[3]; aprepitant 80 mg/kg/day", "result": 50}, {"measurement": "triple negative human primary breast carcinoma proliferation in a xenograft model", "setting": "[3]; dose-dependent fashion", "result": "reduces"}]}]}
